Assay results reported in patent publication US20230174486A1, “NON-LYSOSOMAL GLUCOSYLCERAMIDASE INHIBITORS AND USES THEREOF” (ALECTOS THERAPEUTICS lNC., priority 2020, published 2023).

Key:
human GBA2 = molecular target: T1, human GBA2 (Homo sapiens, UniProt Q9HCG7); assay: Inhibition of GBA2 in cell lysate (4-methylumbelliferone-β-D glucopyranoside substrate); format: biochemical; conditions: homogenate of HEK293T cells stably overexpressing human GBA2, pH 5.5, 37° C., GCase inhibitor present
T1 construct: cellular homogenate
T1 sequence (Q9HCG7 1-927): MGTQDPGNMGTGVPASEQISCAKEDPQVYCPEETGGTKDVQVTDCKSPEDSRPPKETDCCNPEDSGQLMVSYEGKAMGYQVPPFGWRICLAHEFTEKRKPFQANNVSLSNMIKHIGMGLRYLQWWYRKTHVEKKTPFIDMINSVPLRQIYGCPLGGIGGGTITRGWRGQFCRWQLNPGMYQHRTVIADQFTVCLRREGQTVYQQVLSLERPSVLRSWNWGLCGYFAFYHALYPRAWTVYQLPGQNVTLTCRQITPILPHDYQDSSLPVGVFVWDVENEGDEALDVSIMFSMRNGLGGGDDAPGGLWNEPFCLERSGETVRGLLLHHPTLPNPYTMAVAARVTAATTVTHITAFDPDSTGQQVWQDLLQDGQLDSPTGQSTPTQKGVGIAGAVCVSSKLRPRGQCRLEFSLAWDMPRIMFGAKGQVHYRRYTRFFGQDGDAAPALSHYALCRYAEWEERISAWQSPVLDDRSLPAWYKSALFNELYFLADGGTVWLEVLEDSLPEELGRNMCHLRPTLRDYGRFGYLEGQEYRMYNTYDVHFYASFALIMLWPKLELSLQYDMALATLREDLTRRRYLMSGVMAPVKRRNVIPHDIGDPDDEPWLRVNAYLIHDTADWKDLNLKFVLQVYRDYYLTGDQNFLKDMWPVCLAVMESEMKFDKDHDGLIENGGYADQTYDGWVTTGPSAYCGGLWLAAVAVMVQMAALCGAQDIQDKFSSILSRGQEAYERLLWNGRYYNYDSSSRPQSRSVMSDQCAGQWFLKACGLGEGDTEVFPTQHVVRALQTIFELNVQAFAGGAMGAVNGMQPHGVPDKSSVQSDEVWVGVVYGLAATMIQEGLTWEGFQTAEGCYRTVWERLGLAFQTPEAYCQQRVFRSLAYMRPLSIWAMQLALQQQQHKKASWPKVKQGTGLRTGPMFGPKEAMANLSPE
Description: Stable GBA2-expressing HEK293T cells were generated as follows. The PCR-amplified human GBA2 (GBA2 nucleotide accession number BC011363) using the following primers: Sense 5’---CGCAAATGGGCGGTAGGCGTG---3’ and antisense 5’---TAGTCAGCCATGGGGCGGAGA ---3’) was cloned into pLenti-GIII-CMV by ABM Inc. The correctness of the construct was verified by sequencing. Lentivirus particles containing GBA2 in the pLenti-GIII-CMV plasmid were prepared using a third Generation Virus Packaging Mix (ABM cat# LV053-G074) in HEK293T cells and supplied as a virus particle suspension. The virus suspension was used for infection of HEK293T cells. Cell populations stably expressing human GBA2 were selected using puromycin for several weeks as determined by activity assays and western blot.
Various concentrations of test compounds were prepared in DMSO and then diluted into buffer consisting of 100 mM citric acid, 200 mM disodium phosphate with 1% v/v C10E6, pH 5.5. Cellular homogenates (0.25 mg/mL) of the stable HEK293T-overexpressing GBA2 cell line were preincubated for 10 min on ice with an inhibitor of GCase (20 µM (6R,7R,8S)-8-ethyl-4-azaspiro[2.5]octane-6,7-diol). The reaction solution consisted of 20 µL of 750 µM 4-methylumbelliferone-β-D glucopyranoside in 5% DMSO in the same buffer, 20 µL of GBA2-cellular homogenate pre-treated with (6R,7R,8S)-8-ethyl-4-azaspiro[2.5]octane-6,7-diol and 20 µL of various concentrations of test compound in 10% DMSO in the same buffer. The final concentrations in the reaction were 0.083 mg/mL GBA2-cellular homogenate, 250 µM 4-methylumbelliferone-β-D glucopyranoside, and various concentrations of inhibitor. The inhibitor and GBA2-cellular homogenate were preincubated together for 5 min at 37° C. The reaction was initiated by addition of substrate and allowed to proceed for 20 min at 37° C. to assess GBA2 activity. Reactions were stopped by the addition of an equal volume (60 µL) of 0.5 M NaOH, 0.3 M glycine, pH 10.5. Fluorescence was measured on a Biotek Synergy H4 plate reader at wavelengths of 365 nm for excitation and 450 nm for emission. Incubations without added enzyme or added inhibitors were used to define no enzyme activity and maximal enzyme activity, respectively. IC50 values were determined by fitting the data to a log[inhibitor concentration] versus response curve using GraphPad Prism. IC50 values were calculated as the concentration of inhibitor required to inhibit GBA2 activity by 50%.

[1] = molecular target: T2, human non-lysosomal glucosylceramidase (GBA2) (Homo sapiens, UniProt Q9HCG7); assay: Binding specificity for GBA2 over other molecules (ratio of Ki or IC50 values); format: biochemical; conditions: qualitative statement, no values or other enzyme given
T2 sequence (Q9HCG7 1-927): T1 sequence (Q9HCG7 1-927)
Source text: In some embodiments, one or more of the compounds according to the invention may specifically bind a GBA2. In alternative embodiments, one or more of the compounds according to the invention may specifically bind the active site of a GBA2. […] In alternative embodiments, one or more of the compounds according to the invention may specifically bind the human non-lysosomal glucosylceramidase (GBA2) over the human lysosomal glucosylceramidase (GCase) and/or the human cytosolic glucosylceramidase (GBA3). In alternative embodiments, one or more of the compounds according to the invention may specifically bind the human non-lysosomal glucosylceramidase (GBA2) over the human glucosylceramide synthase (GCS). In alternative embodiments, one or more of the compounds according to the invention may specifically bind the human non-lysosomal glucosylceramidase (GBA2) over an intestinal alpha-glucosidase, where the intestinal alpha-glucosidase may be a sucrase-isomaltase or a maltase-glucoamylase.

GBA2 IC50 (human GBA2) | binding specificity, Ki(other molecule)/Ki(GBA2) or IC50(other molecule)/IC50(GBA2) [1] | Compound
∗∗∗ |  | OC[C@@H]1[C@@H](O)[C@H](O)[C@@H](O)CN1CCc1ccsc1 [Example 11, (2R,3R,4R,5S)-2-(hydroxymethyl)-1-(2-(thiophen-3-yl)ethyl)piperidine-3,4,5-triol]
∗∗∗ | enhanced binding specificity | OC[C@H]1[C@@H](O)[C@H](O)[C@@H](O)CN1CC1CCCCC1 [Example 12, (2S,3R,4R,5S)-1-(cyclohexylmethyl)-2-(hydroxymethyl)piperidine-3,4,5-triol]
∗∗∗ | enhanced binding specificity | OC[C@H]1[C@@H](O)[C@H](O)[C@@H](O)CN1C[C@@H]1CCCN(c2nc(C(F)(F)F)cs2)C1 [Example 32, (2S,3R,4R,5S)-2-(hydroxymethyl)-1—(((S)—1-(4-(trifluoromethyl)thiazol-2-yl)piperidin-3-yl)methyl)piperidine-3,4,5-triol]
∗∗∗ | enhanced binding specificity | CC(C)(F)[C@H]1CC[C@@H](CN2C[C@H](O)[C@@H](O)[C@H](O)[C@@H]2CO)CC1 [Example 14, (2S,3R,4R,5S)-1-(((1s,4S)-4-(2-fluoropropan-2-yl)cyclohexyl)methyl)-2-(hydroxymethyl)piperidine-3,4,5-triol]
∗∗∗ | enhanced binding specificity | OC[C@H]1[C@@H](O)[C@H](O)[C@@H](O)CN1C[C@@H]1CCN(c2nc(C(F)(F)F)cs2)C1 [Example 28, (2S,3R,4R,5S)-2-(hydroxymethyl)-1—(((S)—1-(4-(trifluoromethyl)thiazol-2-yl)pyrrolidin-3-yl)methyl)piperidine-3,4,5-triol]
∗∗∗ |  | OC[C@@H]1[C@@H](O)[C@H](O)[C@@H](O)CN1CCc1cccc(F)c1 [Example 2, (2R,3R,4R,5S)-1-(3-fluorophenethyl)-2-(hydroxymethyl)piperidine-3,4,5-triol]
∗∗∗ |  | OC[C@@H]1[C@@H](O)[C@H](O)[C@@H](O)CN1CCc1cccs1 [Example 10, (2R,3R,4R,5S)-2-(hydroxymethyl)-1-(2-(thiophen-2-yl)ethyl)piperidine-3,4,5-triol]
∗∗ |  | OC[C@@H]1[C@@H](O)[C@H](O)[C@@H](O)CN1CCc1ccccn1 [Example 9, (2R,3R,4R,5S)-2-(hydroxymethyl)-1-(2-(pyridin-2-yl)ethyl)piperidine-3,4,5-triol]
∗∗∗ | enhanced binding specificity | OC[C@H]1[C@@H](O)[C@H](O)[C@@H](O)CN1C[C@@H]1CCN(c2ncccc2C(F)(F)F)C1 [Example 27, (2S,3R,4R,5S)-2-(hydroxymethyl)-1—(((S)—1-(3-(trifluoromethyl)pyridin-2-yl)pyrrolidin-3-yl)methyl)piperidine-3,4,5-triol]
∗∗∗ | enhanced binding specificity | OC[C@H]1[C@@H](O)[C@H](O)[C@@H](O)CN1CCc1ccc(-c2ccccc2)cc1 [Example 20, (2S,3R,4R,5S)-1-(2-([1,1′-biphenyl]-4-yl)ethyl)-2-(hydroxymethyl)piperidine-3,4,5-triol]
∗∗∗ |  | OC[C@@H]1[C@@H](O)[C@H](O)[C@@H](O)CN1CCc1ccc(C(F)(F)F)cc1 [Example 6, (2R,3R,4R,5S)-2-(hydroxymethyl)-1-(4-(trifluoromethyl)phenethyl)piperidine-3,4,5-triol]
∗∗∗ |  | OC[C@H]1[C@@H](O)[C@H](O)[C@@H](O)CN1CCc1ccccc1F [Example 18, (2S,3R,4R,5S)-1-(2-fluorophenethyl)-2-(hydroxymethyl)piperidine-3,4,5-triol]
∗∗∗ |  | OC[C@H]1[C@@H](O)[C@H](O)[C@@H](O)CN1CCc1cccc(Cl)c1F [Example 19, (2S,3R,4R,5S)-1-(3-chloro-2-fluorophenethyl)-2-(hydroxymethyl)piperidine-3,4,5-triol]
∗∗∗ |  | OC[C@@H]1[C@@H](O)[C@H](O)[C@@H](O)CN1CCc1ccccc1F [Example 1, (2R,3R,4R,5S)-1-(2-fluorophenethyl)-2-(hydroxymethyl)piperidine-3,4,5-triol]
∗∗∗ |  | OC[C@@H]1[C@@H](O)[C@H](O)[C@@H](O)CN1CCc1ccc(F)cc1 [Example 3, (2R,3R,4R,5S)-1-(4-fluorophenethyl)-2-(hydroxymethyl)piperidine-3,4,5-triol]
∗∗∗ |  | OC[C@H]1[C@@H](O)[C@H](O)[C@@H](O)CN1CCCC1CCCCC1 [Example 17, (2S,3R,4R,5S)-1-(3-cyclohexylpropyl)-2-(hydroxymethyl)piperidine-3,4,5-triol]
∗∗∗ |  | OC[C@H]1[C@@H](O)[C@H](O)[C@@H](O)CN1C[C@H]1CCN(c2nc(C(F)(F)F)cs2)C1 [Example 26, (2S,3R,4R,5S)-2-(hydroxymethyl)-1—(((R)—1-(4-(trifluoromethyl)thiazol-2-yl)pyrrolidin-3-yl)methyl)piperidine-3,4,5-triol]
∗∗∗ |  | OC[C@@H]1[C@@H](O)[C@H](O)[C@@H](O)CN1CCc1cccc(C(F)(F)F)c1 [Example 5, (2R,3R,4R,5S)-2-(hydroxymethyl)-1-(3-(trifluoromethyl)phenethyl)piperidine-3,4,5-triol]
∗∗∗ |  | OC[C@H]1[C@@H](O)[C@H](O)[C@@H](O)CN1C[C@H]1CCCN(c2nc(C(F)(F)F)cs2)C1 [Example 30, (2S,3R,4R,5S)-2-(hydroxymethyl)-1—(((R)—1-(4-(trifluoromethyl)thiazol-2-yl)piperidin-3-yl)methyl)piperidine-3,4,5-triol]
∗∗∗ |  | C[C@@H](CN1C[C@H](O)[C@@H](O)[C@H](O)[C@H]1CO)c1ccccc1 (single isomer, unassigned) [Example 7]

Compound | GBA2 IC50 (human GBA2) | binding specificity, Ki(other molecule)/Ki(GBA2) or IC50(other molecule)/IC50(GBA2) [1]
CCCCOc1ccc(CCN2C[C@H](O)[C@@H](O)[C@H](O)[C@@H]2CO)cc1 [Example 22, (2S,3R,4R,5S)-1-(4-butoxyphenethyl)-2-(hydroxymethyl)piperidine-3,4,5-triol] | ∗∗∗ | enhanced binding specificity
